Test results from a melting point compilation (Tetko et al.; mined from patent text by program, amines drawn as free bases though some values may be those of a salt).

| SMILES | melting point [°C] |
| --- | --- |
| O=C(O)C1Cc2c(c(Cl)cc3c(-c4cccs4)noc23)O1 (centres undefined) | 249 to 251 |
| CC(C)c1ccc(S(=O)(=O)Nc2cnc(I)cc2C(F)(F)F)cc1 | 156 |
| O=C(Nc1cccc2c1C(=O)c1c-2n[nH]c1-c1ccc(C(=O)N2CCNCC2)s1)NN1CCOCC1 | 241 to 242 |
| Cc1ccc(-c2ccc3c(c2)C=C(C=O)CCO3)cc1 | 132 to 133 |
| CC1c2ccccc2CCON1C(N)=O (centres undefined) | 128 to 129 |
| Cc1nc2cccc(C)n2c(=O)c1CCN1CCN(c2cccc(Cl)c2)CC1 | 116 to 118 |
| CCNc1ccc(C#N)cc1[N+](=O)[O-] | 130 to 132 |
| O=C(c1cn(-c2cccc(-c3ccccc3)c2)cn1)n1cccn1 | 124 to 127 |
| Nc1cccc(Nc2cccc(N)n2)n1 | 171 to 173 |
| COc1ncnc2ccsc12 | 92 to 94 |
| CC(=O)N1CCC(c2nc3cccc4c3n2CCC4)CC1 | 139 to 140 |
| Nc1cccc(C(=O)OC2CCN(Cc3ccccc3)CC2)c1 | 70 to 71 |
| Cc1cc(C)c2c(O)c([N+](=O)[O-])c(=O)oc2c1 | 186 to 187 |
| CC1=CC2(C=C3CCC4C5CCC(=O)C5(C)CCC4C13C)OCCO2 (centres undefined) | 159 |
| COc1cc(C=CC(=O)OC2C(O)C3CC(OC(=O)c4cc(OC)c(OC)c(OC)c4)CC2[N+]3(C)[O-])cc(OC)c1OC (centres undefined) | 118 to 121 |
| O=C1c2cccc3cc4c([N+](=O)[O-])cccc4c(c23)C(=O)N1CCNCCCNCCN1C(=O)c2cccc3cc4c([N+](=O)[O-])cccc4c(c23)C1=O | > 340 |
| CC(C(=O)C(C)(C)CF)n1cncn1 (centres undefined) | 62 to 78 |
| c1ncn(Cc2nc(-c3ccc4c(c3)OCO4)c3cc4c(cc3n2)OCO4)n1 | 195 to 198 |
| CCCCCCCCCCCCc1cc(C(C(=O)Nc2c(OC)cc(OC)cc2OC)c2ccccc2)on1 (centres undefined) | 88 to 97 |
| CC(C)C(=CC(N)C(=O)O)CP(=O)(O)O (centres undefined) | 201 |
| CCS(=O)(=O)NCCCCn1c(=O)c2c(C)nc3cccc1n32 | 144 to 145 |

| SMILES | melting point [°C] |
| --- | --- |
| Cc1noc(NS(=O)(=O)c2ccccc2-c2ccc(-c3ncco3)cc2CNC=O)c1C | 105 to 109 |
| O=C1CCCc2c1c1cccc3c1n2CC3 | 208 to 210 |
| CO[C@@H]1C[C@H]2[C@H](C(=O)O)[C@H]2[C@]1(N)C(=O)O | > 250 |
| O=C(O)CC1CCc2c(cccc2OC2CCCCO2)C1 (centres undefined) | 104 to 109 |
| COc1cc2ncc(C#N)c(Nc3ccccc3C(N)=O)c2cc1OC | 238 to 240 |
| O=C(c1ccc(OCCCCl)cc1)c1cccc2[nH]ccc12 | 86 |
| COc1cc(C2CCC(c3cc(OC)c(OC)c(OC)c3)C2O)cc(OC)c1OC (centres undefined) | 138 to 140 |
| CC(=O)N1CCC(C(=O)N2CC[C@@H](N(C)C(=O)c3ccc(Br)cn3)[C@H](c3ccc(Cl)c(Cl)c3)C2)CC1 | 128 to 130 |
| C=CC1(S(=O)(=O)CCS(=O)(=O)CC(O)CS(=O)(=O)CCCl)C=CC=CC1 (centres undefined) | > 200 |
| CC(=O)N1CCc2c([nH]c3ccccc23)C1CCCCl (centres undefined) | 166 to 168 |
| C=C(C)OC(=O)N1C(=O)C(C)N(C(=O)OC(=C)C)c2ccncc21 (racemic) | 96 to 97 |
| S=C(Nc1ccccc1Cl)N1CCN(c2cnccn2)CC1 | 167 to 169 |
| CC(=O)Nc1ccc(F)c(F)c1F | 87 to 88 |
| Cn1cc2c(C3C(=O)Nc4ccc(Br)cc43)nc(Cl)nc2n1 (centres undefined) | > 300 |
| Nc1ncnc2c1c(-c1cc(O)cc(F)c1)nn2Cc1oc2cccc(F)c2c(=O)c1-c1cccc(F)c1 | 136 to 138 |
| CN1CCC(O)(c2cccc3[nH]ccc23)CC1 | 205 to 206 |
| COC(=O)N1CCC[C@@H](OC)[C@@H]1CC(=O)Cn1cnc2ccc(C(F)(F)F)cc2c1=O (relative stereo) | 137 to 140 |
| N#Cc1cc(C=Cc2ccc(N(c3ccccc3)c3ccccc3)cc2)c(C#N)cc1C=Cc1ccc(N(c2ccccc2)c2ccccc2)cc1 | 260 |
| CN1C(=O)CC[C@]2(C)c3ccc(-c4cc(C(F)(F)F)nc5c(C(F)(F)F)cccc45)cc3CC[C@@H]12 | 100 to 106 |
| CC(=O)N1CCC(Oc2ccc(N3CCOCC3)cc2)CC1 | 208 to 209 |
| COc1ccc(OC)c(OC)c1OC | 84 to 85 |

| SMILES | melting point [°C] |
| --- | --- |
| O=C(O)CCc1cn(Cc2ccc(OCc3ccc(-c4ccccc4)cn3)cc2)nc1-c1ccccc1 | 149 to 150 |
| CCCCCCCCCCCCCCCCCCOC[C@@H]1CO[C@@H](COC(=O)Nc2ccncc2)C1 (relative stereo) | 118 to 123 |
| CCc1nc2c(N)nc3ccccc3c2n1CCCCNC(=O)c1ccccc1 | 203 to 206 |
| OCc1cccc(-c2cnc3cnc(-c4ccc(O)cc4)nc3c2)c1 | 232 |
| N#Cc1cccc(S(=O)(=O)n2c(=O)[nH]c3cc(Cl)ccc3c2=O)c1 | 225 to 226 |
| N#Cc1nn(-c2c(Cl)cc(C(F)(F)F)cc2Cl)c(N)c1-c1cc(Cl)oc1Cl | 193 to 194 |
| CCn1cnc2c(Nc3cccc(Cl)c3)nc(Cl)nc21 | 127 to 128 |
| O=C(O)[C@@H]1C[C@@H](O)CN1S(=O)(=O)c1ccc2ccccc2c1 | 140 |
| O=C(NCCc1ccc(Cl)cc1)C1Cc2ccccc2N1S(=O)(=O)c1ccc(-c2ccc(F)cc2)cc1 (centres undefined) | 126 |
| C#Cc1ccc2c(c1)C(c1ccccc1Cl)=NCc1nnc(C)n1-2 | 304 to 306 |
| CNC(=O)Oc1ccc(S(C)(=O)=O)c2c1CCCC2 | 162 to 164 |
| CC(=O)NC[C@H]1CN(c2ccc(N3CCC(n4ccnc4)CC3)c(F)c2)C(=O)O1 | 160 to 162 |
| O=C1OC(c2ccc(Cl)cc2)c2ccccc21 (centres undefined) | 124 |
| CC(C)Nc1cccnc1N1CCN(C(=O)c2ccc(C(=O)N3CCN(CCCO)CC3)cc2)CC1 | 129 |
| O=C(NCCC1CCCCC1)c1c(Cl)ccc2nc(N3CCC(C(=O)O)CC3)ccc12 | 253 to 256 |
| Fc1ccc([C@@H]2Cc3cnc(Nc4ccc(CCN5CCCCC5)cc4)nc3-c3ccccc32)cc1 | 185 to 188 |
| C[C@H](CNC(=O)COc1cc(C(F)(F)F)c2c(-c3ccccc3)nn(C)c2n1)c1ccccc1 | 91 to 93 |
| COc1ccc(C(=O)Nc2ccccc2)cc1NC(=S)NC(=O)c1ccccc1 | 219 to 222 |
| COC(=O)c1c(C(F)F)nc(C(F)(F)F)c(C(=O)OC)c1CI | 78 to 79 |

Results, then the compound that gave them:

| melting point [°C] | SMILES |
| --- | --- |
| 71 to 73 | Cc1ccc(C(=O)NC/C=C\COc2cc(CN3CCCCC3)ccn2)s1 |
| 80 to 81 | CON(C)C(=O)c1cc(Br)ccc1N |
| 137 to 138 | CC(C)(C)N(O)Cc1ccc(CN(O)C(C)(C)C)cc1 |
| 62 to 63 | COC(=O)c1ccc(OC)c(O)c1 |
| 156 to 158 | NNc1ccc(CS(N)(=O)=O)cc1 |
| 74.5 to 75 | O=C(c1ccc(Cl)cc1)c1ccc(OC(F)(F)F)cc1 |
| 143 to 145 | CN(C)Cc1ccc(-c2nc(C(=O)Nc3nccs3)c(-c3ccc(Cl)cc3)[nH]2)cc1 |
| 158 to 162 | CCOC(=O)c1ccc(NCCOc2ccc3ccccc3c2)cc1 |
| 169 to 171 | CC(C)(C)c1nc(C(N)=S)nc(C(C)(C)C)c1O |
| 118 to 120 | CC(CCCC(C)(C)O)C1CCC2C3=CC=C4CC(O)C(OCCCO)C(O)C4(C)C3CCC21C (centres undefined) |
| 87.7 | CC(=O)Oc1c(C(C)(C)C)cc2occc2c1C(C)(C)C |
| 113 to 114 | NCCC1(O)c2ccccc2CCc2ccccc21 |
| 151 to 155 | Nc1ccc(Sc2cc(F)ccc2CC(=O)O)cc1 |
| 233 to 236 | CCCCOc1ccc(-c2ccc3c(c2)C=C(C(=O)Nc2ccc(CN(C)C4CCOCC4)cc2)CCS3(=O)=O)cc1 |
| 110 to 115 | CCOC(=O)c1ccc(NC(=O)c2ccccc2C)cc1 |
| 84 to 85 | CCOC(=O)C(=NNc1ccc(Cl)cc1)C(C)=O |
| 108 to 110 | N#CCc1cccc(OCc2csc(-c3ccccc3)n2)c1 |
| 179 to 181 | CCCc1nc2c(N)nc3ccccc3c2n1CCCCN(OC)C(N)=O |
| 148 to 150 | CN1CC(C(=O)N(C)Cc2ccc(Cl)c(Cl)c2)=C(O)C1=O |

| melting point [°C] | SMILES |
| --- | --- |
| 199 to 201 | CC(=O)c1ccccc1-c1ccc(C(=O)O)cc1 |
| 232 to 234 | COc1ccc(Oc2cc(Cl)ccc2[N+](=O)[O-])c(C(=O)O)c1 |
| 146 to 148 | Clc1ccc(-c2c[nH]cn2)cc1 |
| 144 to 146 | CC1(C)CC(N2C(=O)c3ccc(C(=O)OCC(O)c4ccccc4)cc3C2=O)CC(C)(C)N1 (centres undefined) |
| 123 to 125 | CN(C)c1nc(N(C)C)c2nnn(Cc3ccccc3F)c2n1 |
| 119 to 121 | Cc1cc(Oc2ncc(C(F)(F)F)cc2Cl)nn1C(=S)NCc1ccc(Cl)cc1 |
| 193 to 195 | Cc1ccc2c(=O)c(CS(C)(=O)=O)cn(C)c2c1 |
| 192 to 194 | CCCCc1nc(C(O)c2ccccc2)c(C(=O)O)n1Cc1ccc(-c2ccccc2C(=O)O)cc1 (centres undefined) |
| 104 | CC(=O)SC[C@@H](C)C(=O)N1C(=O)N(C)C[C@H]1C(=O)OC(C)(C)C |
| 139 to 141 | COc1cc2c(cc1OCCN(C)C)N(C(=O)c1ccc(-c3ccc(-c4noc(C)n4)cc3C)cc1)CCC2 |
| 183 to 184 | CC(=O)Nc1c(C(=O)c2cccc(Br)c2)[nH]c2cc(Cl)ccc12 |
| 108 to 109 | CCOc1ccc(-c2nc(-c3ccc(SC(=O)N(C)C)c(C(=O)OC)c3)cs2)cc1OCC |
| 161 to 162 | Nc1c(C(=O)CCC(=O)O)cccc1C(=O)c1ccccc1 |
| > 300 | COc1ccc2c(c1)C(=O)C(C(=O)O)C(c1ccccc1)=N2 (centres undefined) |
| 221 to 224 | CCCc1[nH]c2ccc(OC)cc2c1/C=C/C(=O)c1ccncc1 |
| 214 | COc1ccc(-n2c(C)nnc2S)cc1 |
| 130 to 132 | NC(=O)N(O)C[C@@H]1C[C@H]1c1cccc(Oc2ccncc2)c1 (relative stereo) |
| 95 to 100 | CC(C)(C)c1cc(C(=O)Nc2cccc(SCc3cccnc3)c2)ccc1O |
| 188 to 190 | COc1cc(C(=O)Nc2nc(C)c(C(=O)NCc3ccccc3)s2)ccn1 |
